Test results reported in US6608061B2, “Bisaryl compound and medicament for cancer treatment comprising the same” (Kyoma Hakko Kogyo Co., Ltd., priority 1997, dated 2003).
Where two headings read alike, the source gives them in different places.

Columns and labels:
[1] = target: T1, human RNR (purified R1 and R2 subunits) (Homo sapiens, UniProt P23921+P31350); test: In vitro measurement of human RNR inhibitory activity (conversion of CDP to dCDP, HPLC); type: biochemical; details: 100 μM CDP, 37° C., 30 minutes, read-out: RNR Inhibition (IC50)
T1 construct: made in house; host or cells: Escherichia coli BL21(λDE3)pLysS, plasmids pETR1 and pETR2 (pET3a backbone)
T1 sequence (P23921 1-792): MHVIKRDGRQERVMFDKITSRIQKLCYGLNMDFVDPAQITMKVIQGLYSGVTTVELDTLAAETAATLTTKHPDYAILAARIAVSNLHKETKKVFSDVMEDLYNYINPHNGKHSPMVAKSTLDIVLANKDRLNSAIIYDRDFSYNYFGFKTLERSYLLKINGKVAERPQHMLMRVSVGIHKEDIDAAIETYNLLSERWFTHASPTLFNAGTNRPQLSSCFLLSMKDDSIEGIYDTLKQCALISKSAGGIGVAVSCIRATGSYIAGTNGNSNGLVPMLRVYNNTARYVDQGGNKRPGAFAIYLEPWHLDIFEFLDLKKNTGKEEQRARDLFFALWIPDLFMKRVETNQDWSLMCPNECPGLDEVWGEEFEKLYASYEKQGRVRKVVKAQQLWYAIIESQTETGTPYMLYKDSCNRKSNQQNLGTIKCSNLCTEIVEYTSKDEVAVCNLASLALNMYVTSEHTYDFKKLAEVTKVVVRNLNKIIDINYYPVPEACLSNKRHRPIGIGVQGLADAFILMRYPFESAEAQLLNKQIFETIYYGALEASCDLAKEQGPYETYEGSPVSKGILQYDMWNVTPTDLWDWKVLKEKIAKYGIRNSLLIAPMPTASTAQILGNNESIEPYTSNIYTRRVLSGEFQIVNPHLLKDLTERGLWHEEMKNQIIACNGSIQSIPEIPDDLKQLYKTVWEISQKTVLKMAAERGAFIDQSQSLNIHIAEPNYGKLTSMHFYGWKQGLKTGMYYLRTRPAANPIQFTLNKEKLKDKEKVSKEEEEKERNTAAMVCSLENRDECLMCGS
T1 sequence (P31350 1-389): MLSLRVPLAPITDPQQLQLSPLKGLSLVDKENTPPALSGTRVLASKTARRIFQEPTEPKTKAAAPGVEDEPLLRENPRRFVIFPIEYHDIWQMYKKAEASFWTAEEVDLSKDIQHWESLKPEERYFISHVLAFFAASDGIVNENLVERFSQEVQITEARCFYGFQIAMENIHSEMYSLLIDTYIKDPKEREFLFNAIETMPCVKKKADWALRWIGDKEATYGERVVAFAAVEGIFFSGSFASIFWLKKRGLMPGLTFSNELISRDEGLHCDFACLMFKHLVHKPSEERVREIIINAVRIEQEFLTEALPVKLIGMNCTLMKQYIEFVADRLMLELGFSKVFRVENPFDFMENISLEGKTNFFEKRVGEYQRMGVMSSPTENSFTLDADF

[2] = system: HeLa S3 cells; test: Test for growth inhibition of HeLa S3 cells; type: cell-based; details: HeLa S3 cells, 72 hours with test compound, Cell Proliferation Kit II, read-out: Cell growth inhibition (IC50)
Procedure: Test for Growth Inhibition of Hela S3 Cells
HeLa S3 cells prepared at 1×10^4 cells/ml in MEM culture medium containing 10% fetal bovine serum and 2 mM glutamine were added to each well of a 96-well microtiter plate (0.1 ml for each well). The cells were cultured at 37° C. in a CO2 incubator for 24 hours, and then 0.05 ml of test compound appropriately diluted with the above medium was added to each well, and then the mixture was cultured at 37° C. in a CO2 incubator for 72 hours. After the culture supernatant was removed, each well was washed with 0.1 ml of PBS buffer twice, and 0.1 ml of the aforementioned medium was added to each well again.
Cell Proliferation Kit II (Boehringer Mennheim) was used for measurement of cell number in each well. After a coloring reaction reagent was added, the plate was warmed to 37° C. in a CO2 incubator for 3 hours. Then, absorbances at 490 nm and 655 nm were measured by a microplate reader, and a value (difference of absorbance) was calculated for each well by subtracting the absorbance at […] from the absorbance at 490 nm. By comparing the differences of absorbance for cells without treatment and cells treated with a test compound at a known concentration, a concentration of test compound which inhibited the cell growth by 50% was calculated, and the value obtained was determined as IC50. The values of RNR inhibitory activity obtained in Example 8, and the values of cell growth inhibitory activity obtained in Example 9 are shown in the following tables (the compound numbers used in the tables correspond to the compound numbers shown in the aforementioned tables).

Compound	IC50 [1]	IC50 ([2]; Homo sapiens, HeLa S3, 72 h)	IC50 [2]
Oc1ccc(SCc2cccc(CSc3ccc(O)cc3)n2)cc1 [Compound 1]	4.26 µM	5.15 µM	
O=C1N(CS(=O)(=O)CCSc2ccc(O)cc2)CCCN1CS(=O)(=O)CCSc1ccc(O)cc1 [Compound 7]	4.82 µM	> 101 µM	
Oc1ccc(SCCNCCSc2ccc(O)cc2)cc1 [Compound 45]	3.64 µM	5.64 µM	
N=C(N)N(CCSc1ccc(O)cc1)CCSc1ccc(O)cc1 [Compound 49]	5.45 µM	16 µM	
O=C(CCSc1ccc(O)cc1)N(CCSc1ccc(O)cc1)CCSc1ccc(O)cc1 [Compound 52]	4.38 µM	6.5 µM	
O=CN(CCSc1ccc(O)cc1)CCSc1ccc(O)cc1 [Compound 53]	1.05 µM	1.71 µM	
CC(=O)N(CCSc1ccc(O)cc1)CCSc1ccc(O)cc1 [Compound 54]	0.48 µM	4.63 µM	
O=C(N(CCSc1ccc(O)cc1)CCSc1ccc(O)cc1)N1CCCc2ccccc21 [Compound 57]	0.73 µM	14.4 µM	
CC1CCc2ccccc2N1C(=O)N(CCSc1ccc(O)cc1)CCSc1ccc(O)cc1 (stereo not drawn) [Compound 58]	4.76 µM	18.6 µM	
NCCN(CCSc1ccc(O)cc1)CCSc1ccc(O)cc1 [Compound 59]	5.73 µM	5.81 µM	
CCN(CCSc1ccc(O)cc1)CCSc1ccc(O)cc1 [Compound 71]	1.23 µM	3.94 µM	
C#CCN(CCSc1ccc(O)cc1)CCSc1ccc(O)cc1 [Compound 73]	0.6 µM	1.61 µM	
C=CCN(CCSc1ccc(O)cc1)CCSc1ccc(O)cc1 [Compound 74]	0.82 µM	2 µM	
Oc1ccc(SCCN(CCSc2ccc(O)cc2)CC2CC2)cc1 [Compound 75]	1.66 µM	3.56 µM	
CCN(CC)C(=O)CCN(CCSc1ccc(O)cc1)CCSc1ccc(O)cc1 [Compound 80]	0.74 µM	1.43 µM	
CC(=O)CN(CCSc1ccc(O)cc1)CCSc1ccc(O)cc1 [Compound 81]	0.29 µM	1.23 µM	
NC(=O)NCCN(CCSc1ccc(O)cc1)CCSc1ccc(O)cc1 [Compound 82]	1.42 µM	1.3 µM	
CC(=O)NCCN(CCSc1ccc(O)cc1)CCSc1ccc(O)cc1 [Compound 83]	2.95 µM	5.17 µM	
O=C1CCC(=O)N1CCN(CCSc1ccc(O)cc1)CCSc1ccc(O)cc1 [Compound 86]	3.14 µM	3.78 µM	
CSCCN(CCSc1ccc(O)cc1)CCSc1ccc(O)cc1 [Compound 87]	1.01 µM	2.57 µM	
Oc1ccc(SCCN(CCSc2ccc(O)cc2)CC2OCCO2)cc1 [Compound 88]	1.79 µM	3.22 µM	
Oc1ccc(SCCN(CCSc2ccc(O)cc2)Cc2cccs2)cc1 [Compound 89]	1.46 µM	4.66 µM	
Oc1ccc(SCCN(CCSc2ccc(O)cc2)Cc2ccco2)cc1 [Compound 90]	2.03 µM	6.38 µM	
Oc1ccc(SCCN(CCSc2ccc(O)cc2)Cc2ccccc2O)cc1 [Compound 92]	0.89 µM	2.14 µM	
Oc1ccc(SCCN(CCSc2ccc(O)cc2)Cc2cccc(O)c2)cc1 [Compound 93]	0.63 µM	9.04 µM	
OCCCN(CCSc1ccc(O)cc1)CCSc1ccc(O)cc1 [Compound 95]	0.88 µM	3.56 µM	
Oc1ccc(SCCN(CCSc2ccc(O)cc2)Cc2ccccc2)cc1 [Compound 98]	3.36 µM	15 µM	
Oc1ccc(SCCN(CCSc2ccc(O)cc2)Cc2cccnc2)cc1 [Compound 99]	2.79 µM	5.8 µM	

Compound	IC50 [1]	IC50 ([2]; Homo sapiens, HeLa S3, 72 h)	IC50 [2]
Oc1ccc(SCCN(CCSc2ccc(O)cc2)Cc2ccc3ccccc3n2)cc1 [Compound 101]	5.05 µM	12.9 µM	
COCCN(CCSc1ccc(O)cc1)CCSc1ccc(O)cc1 [Compound 104]	2.11 µM	1.74 µM	
Oc1ccc(SCCN(CCSc2ccc(O)cc2)Cc2ccccc2F)cc1 [Compound 105]	3.99 µM	9.07 µM	
Oc1ccc(SCCN(CCSc2ccc(O)cc2)Cc2ccc(F)cc2)cc1 [Compound 106]	4.64 µM	6.77 µM	
O=C(CCN(CCSc1ccc(O)cc1)CCSc1ccc(O)cc1)N1CCOCC1 [Compound 107]	4.2 µM	24.9 µM	
O=C(CCN(CCSc1ccc(O)cc1)CCSc1ccc(O)cc1)N1CCCCC1 [Compound 108]	0.64 µM	2.64 µM	
CCN(CC)CCN(CCSc1ccc(O)cc1)CCSc1ccc(O)cc1 [Compound 109]	2.36 µM	38.9 µM	
Oc1ccc(SCCN(CCSc2ccc(O)cc2)CCN2CCCCC2)cc1 [Compound 111]	1.85 µM	11.4 µM	
CCC(=O)N(CCSc1ccc(O)cc1)CCSc1ccc(O)cc1 [Compound 113]	4.77 µM	3.8 µM	
O=C(c1ccccc1)N(CCSc1ccc(O)cc1)CCSc1ccc(O)cc1 [Compound 114]	3.44 µM	2.74 µM	
O=C(c1ccccn1)N(CCSc1ccc(O)cc1)CCSc1ccc(O)cc1 [Compound 115]	4.14 µM	6.14 µM	
O=C(c1cccnc1)N(CCSc1ccc(O)cc1)CCSc1ccc(O)cc1 [Compound 116]	4.13 µM	3.02 µM	
O=C(c1ccncc1)N(CCSc1ccc(O)cc1)CCSc1ccc(O)cc1 [Compound 117]	1.69 µM	2.72 µM	
CS(=O)(=O)N(CCSc1ccc(O)cc1)CCSc1ccc(O)cc1 [Compound 118]	6.87 µM	7.78 µM	
O=C(N1CCOCC1)N(CCSc1ccc(O)cc1)CCSc1ccc(O)cc1 [Compound 124]	0.09 µM	3.68 µM	
O=C(N1CCCCC1)N(CCSc1ccc(O)cc1)CCSc1ccc(O)cc1 [Compound 125]	0.91 µM	4.55 µM	
Oc1ccc(SSc2ccc(O)cc2)cc1 [Compound 131]	6.59 µM	128 µM	
Oc1ccc(SCSc2ccc(O)cc2)cc1 [Compound 132]	3.5 µM	45.6 µM	
Oc1ccc(SCCSc2ccc(O)cc2)cc1 [Compound 133]	2.27 µM	14.5 µM	
Oc1ccc(SCCCSc2ccc(O)cc2)cc1 [Compound 134]	0.68 µM	2.05 µM	
Oc1ccc(SCCCCSc2ccc(O)cc2)cc1 [Compound 135]	0.43 µM	6.02 µM	
Oc1ccc(SCCCCCSc2ccc(O)cc2)cc1 [Compound 136]	0.69 µM	9.14 µM	
Oc1ccc(SCCCCCCSc2ccc(O)cc2)cc1 [Compound 137]	0.87 µM	5.45 µM	
Oc1ccc(SCCCCCCCSc2ccc(O)cc2)cc1 [Compound 138]	2.29 µM	18.3 µM	
CC(CSc1ccc(O)cc1)Sc1ccc(O)cc1 (stereo not drawn) [Compound 152]	5.14 µM	18 µM	
NC(=O)CN(CCSc1ccc(O)cc1)CCSc1ccc(O)cc1 [Compound 224]			0.4 µM
NC(=O)CN(CCSc1ccc(O)cc1)CCSc1ccc(O)cc1 [Compound 225]			0.55 µM
